Key:
Conditions in all cases: exposure time: 72 h
[1] = tested on: E28 (patient-derived glioblastoma stem cells of classical subtype); assay: surviving fraction (nuclei count normalised to DMSO); higher = more cells surviving (less toxic)
[2] = tested on: E57 (patient-derived glioblastoma stem cells of mesenchymal subtype); assay: as above
[3] = tested on: FT3469 (normal neural stem cell line); assay: as above
[4] = tested on: E34 (patient-derived glioblastoma stem cells of proneural subtype); assay: as above
[5] = tested on: E13 (patient-derived glioblastoma stem cells of classical subtype); assay: as above
[6] = tested on: E21 (patient-derived glioblastoma stem cells of mesenchymal subtype); assay: as above
[7] = tested on: E31 (patient-derived glioblastoma stem cells of proneural subtype); assay: as above
[8] = tested on: E28; assay: phenotypic distance (Euclidean, principal components) from DMSO controls (arbitrary units); higher = stronger morphological change
[9] = tested on: E57; assay: as above
[10] = tested on: FT3469; assay: as above
[11] = tested on: E34; assay: as above
[12] = tested on: E13; assay: as above
[13] = tested on: E21; assay: as above
[14] = tested on: E31; assay: as above
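Throughout, for phenotypic distance (Euclidean, principal components) from DMSO controls: cell Painting imaging in 384-well plates, CellProfiler features reduced to at least 20 principal components, Euclidean distance versus same-plate DMSO vehicle wells (0.1% v/v), median over six images per well.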
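Throughout, for surviving fraction (nuclei count normalised to DMSO): nuclei counted by high-content imaging of Hoechst-stained cells in laminin-coated 384-well plates, relative to 0.1% DMSO vehicle wells, with staurosporine as cell-death control.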

CC(C)CC(=O)N[C@H](C(=O)N[C@H](C(=O)N[C@@H](CC(C)C)[C@@H](O)CC(=O)N[C@@H](C)C(=O)N[C@@H](CC(C)C)[C@@H](O)CC(=O)O)C(C)C)C(C)C [Pepstatin A]
Conditions	phenotypic distance	surviving fraction
[1], 4.1 nM	–	0.953
[1], 12.3 nM	–	1.07
[1], 37 nM	–	1.14
[1], 111.1 nM	–	1.15
[1], 333.3 nM	–	1.06
[1], 1000 nM	–	0.989
[1], 3000 nM	–	0.92
[2], 4.1 nM	–	1.04
[2], 12.3 nM	–	1.08
[2], 37 nM	–	1.01
[2], 111.1 nM	–	1.02
[2], 333.3 nM	–	1.11
[2], 1000 nM	–	0.978
[2], 3000 nM	–	0.901
[3], 4.1 nM	–	0.981
[3], 12.3 nM	–	1.14
[3], 37 nM	–	1.08
[3], 111.1 nM	–	1.05
[3], 333.3 nM	–	1.07
[3], 1000 nM	–	0.993
[3], 3000 nM	–	1.07
[4], 4.1 nM	–	1.05
[4], 12.3 nM	–	1.18
[4], 37 nM	–	0.988
[4], 111.1 nM	–	1.19
[4], 333.3 nM	–	0.959
[4], 1000 nM	–	1.03
[4], 3000 nM	–	0.906
[5], 4.1 nM	–	1.06
[5], 12.3 nM	–	1.08
[5], 37 nM	–	0.987
[5], 111.1 nM	–	0.969
[5], 333.3 nM	–	0.939
[5], 1000 nM	–	1.07
[5], 3000 nM	–	0.973
[6], 4.1 nM	–	1.08
[6], 12.3 nM	–	1.07
[6], 37 nM	–	1.01
[6], 111.1 nM	–	1.05
[6], 333.3 nM	–	0.985
[6], 1000 nM	–	0.986
[6], 3000 nM	–	0.943
[7], 4.1 nM	–	0.988
[7], 12.3 nM	–	1.1
[7], 37 nM	–	1
[7], 111.1 nM	–	0.89
[7], 333.3 nM	–	0.936
[7], 1000 nM	–	0.912
[7], 3000 nM	–	0.801
[8], 4.1 nM	0.473	–
[8], 12.3 nM	0.719	–
[8], 37 nM	0.825	–
[8], 111.1 nM	1.73	–
[8], 333.3 nM	0.834	–
[8], 1000 nM	1.64	–
[8], 3000 nM	0.785	–
[9], 4.1 nM	0.859	–
[9], 12.3 nM	0.774	–
[9], 37 nM	0.554	–
[9], 111.1 nM	0.499	–
[9], 333.3 nM	1.2	–
[9], 1000 nM	1.56	–
[9], 3000 nM	1.57	–
[10], 4.1 nM	0.569	–
[10], 12.3 nM	0.775	–
[10], 37 nM	0.359	–
[10], 111.1 nM	0.585	–
[10], 333.3 nM	0.718	–
[10], 1000 nM	1.15	–
[10], 3000 nM	0.856	–
[11], 4.1 nM	0.998	–
[11], 12.3 nM	1.15	–
[11], 37 nM	0.793	–
[11], 111.1 nM	1.47	–
[11], 333.3 nM	1.37	–
[11], 1000 nM	1.44	–
[11], 3000 nM	0.964	–
[12], 4.1 nM	3.07	–
[12], 12.3 nM	0.418	–
[12], 37 nM	0.54	–
[12], 111.1 nM	2.55	–
[12], 333.3 nM	0.565	–
[12], 1000 nM	1.06	–
[12], 3000 nM	1.04	–
[13], 4.1 nM	0.741	–
[13], 12.3 nM	0.806	–
[13], 37 nM	0.616	–
[13], 111.1 nM	0.484	–
[13], 333.3 nM	0.724	–
[13], 1000 nM	0.99	–
[13], 3000 nM	0.905	–
[14], 4.1 nM	0.911	–
[14], 12.3 nM	0.626	–
[14], 37 nM	0.894	–
[14], 111.1 nM	0.552	–
[14], 333.3 nM	0.816	–
[14], 1000 nM	0.799	–
[14], 3000 nM	0.946	–
